According to ChEMBL document CHEMBL5291721, “A preclinical secondary pharmacology resource illuminates target-adverse drug reaction associations of marketed drugs” (Nat Commun, 2023):
Values joined by “and” are separate entries in the source; they are usually repeats but may differ in a detail not shown here. Equal values may be shown once.

How the values were obtained:
[1] = biological target: Melanocortin receptor 3 (Homo sapiens, UniProt P41968)
[2] = biological target: T1, Alpha-1A adrenergic receptor (Homo sapiens, UniProt P35348); type: functional, cell-based
T1 sequence (P35348 whole entry): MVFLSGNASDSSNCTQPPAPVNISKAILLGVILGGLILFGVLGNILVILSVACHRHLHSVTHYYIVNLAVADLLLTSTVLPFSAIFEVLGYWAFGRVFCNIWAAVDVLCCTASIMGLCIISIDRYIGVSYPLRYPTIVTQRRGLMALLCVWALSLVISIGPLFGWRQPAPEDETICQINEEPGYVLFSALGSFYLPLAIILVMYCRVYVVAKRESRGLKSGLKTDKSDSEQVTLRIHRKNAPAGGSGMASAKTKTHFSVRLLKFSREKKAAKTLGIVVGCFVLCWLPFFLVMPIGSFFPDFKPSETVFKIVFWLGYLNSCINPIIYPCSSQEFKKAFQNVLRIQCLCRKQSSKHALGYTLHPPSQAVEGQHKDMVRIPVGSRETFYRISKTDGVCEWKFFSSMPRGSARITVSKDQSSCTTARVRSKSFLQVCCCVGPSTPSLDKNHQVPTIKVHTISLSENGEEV

[3] = biological target: T2, Adenosine receptor A3 (Homo sapiens, UniProt P0DMS8)
T2 sequence (P0DMS8 whole entry): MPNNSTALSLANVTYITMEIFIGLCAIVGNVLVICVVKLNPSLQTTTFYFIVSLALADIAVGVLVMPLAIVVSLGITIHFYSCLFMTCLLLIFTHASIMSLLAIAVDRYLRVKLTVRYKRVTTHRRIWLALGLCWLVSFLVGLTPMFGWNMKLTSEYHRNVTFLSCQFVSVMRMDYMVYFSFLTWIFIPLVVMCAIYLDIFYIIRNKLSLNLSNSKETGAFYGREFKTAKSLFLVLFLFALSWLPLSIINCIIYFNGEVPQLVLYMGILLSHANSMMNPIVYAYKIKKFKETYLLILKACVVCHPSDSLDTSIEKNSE

[4] = biological target: T3, Progesterone receptor (Homo sapiens, UniProt P06401); type: functional
T3 sequence (P06401 whole entry): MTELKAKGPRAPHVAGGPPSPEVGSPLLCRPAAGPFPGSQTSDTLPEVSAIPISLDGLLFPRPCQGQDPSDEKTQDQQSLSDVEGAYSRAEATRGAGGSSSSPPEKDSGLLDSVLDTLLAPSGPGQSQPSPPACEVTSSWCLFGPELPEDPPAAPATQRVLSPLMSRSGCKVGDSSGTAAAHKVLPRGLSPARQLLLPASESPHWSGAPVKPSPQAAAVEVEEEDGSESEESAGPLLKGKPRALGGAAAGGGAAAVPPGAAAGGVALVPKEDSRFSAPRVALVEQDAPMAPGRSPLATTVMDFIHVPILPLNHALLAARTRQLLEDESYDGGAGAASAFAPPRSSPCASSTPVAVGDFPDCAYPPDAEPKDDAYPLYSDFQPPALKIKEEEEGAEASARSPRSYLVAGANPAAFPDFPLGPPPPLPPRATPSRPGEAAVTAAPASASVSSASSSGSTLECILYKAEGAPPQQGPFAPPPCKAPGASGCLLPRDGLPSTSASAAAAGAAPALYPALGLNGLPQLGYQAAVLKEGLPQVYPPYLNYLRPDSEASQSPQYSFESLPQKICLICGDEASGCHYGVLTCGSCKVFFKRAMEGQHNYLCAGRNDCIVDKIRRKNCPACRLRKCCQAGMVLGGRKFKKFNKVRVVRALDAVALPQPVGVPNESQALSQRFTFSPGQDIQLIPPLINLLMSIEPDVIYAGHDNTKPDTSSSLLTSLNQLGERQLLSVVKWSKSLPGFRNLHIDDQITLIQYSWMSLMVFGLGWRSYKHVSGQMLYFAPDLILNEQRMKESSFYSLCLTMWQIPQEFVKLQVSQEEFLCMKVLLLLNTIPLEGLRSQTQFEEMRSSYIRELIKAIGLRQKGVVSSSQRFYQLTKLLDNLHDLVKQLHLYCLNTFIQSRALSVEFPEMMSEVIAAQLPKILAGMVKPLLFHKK

[5] = biological target: cGMP-inhibited 3',5'-cyclic phosphodiesterase 3A (Homo sapiens, UniProt Q14432); type: functional
cGMP-inhibited 3',5'-cyclic phosphodiesterase 3A, sequence (Q14432 whole entry): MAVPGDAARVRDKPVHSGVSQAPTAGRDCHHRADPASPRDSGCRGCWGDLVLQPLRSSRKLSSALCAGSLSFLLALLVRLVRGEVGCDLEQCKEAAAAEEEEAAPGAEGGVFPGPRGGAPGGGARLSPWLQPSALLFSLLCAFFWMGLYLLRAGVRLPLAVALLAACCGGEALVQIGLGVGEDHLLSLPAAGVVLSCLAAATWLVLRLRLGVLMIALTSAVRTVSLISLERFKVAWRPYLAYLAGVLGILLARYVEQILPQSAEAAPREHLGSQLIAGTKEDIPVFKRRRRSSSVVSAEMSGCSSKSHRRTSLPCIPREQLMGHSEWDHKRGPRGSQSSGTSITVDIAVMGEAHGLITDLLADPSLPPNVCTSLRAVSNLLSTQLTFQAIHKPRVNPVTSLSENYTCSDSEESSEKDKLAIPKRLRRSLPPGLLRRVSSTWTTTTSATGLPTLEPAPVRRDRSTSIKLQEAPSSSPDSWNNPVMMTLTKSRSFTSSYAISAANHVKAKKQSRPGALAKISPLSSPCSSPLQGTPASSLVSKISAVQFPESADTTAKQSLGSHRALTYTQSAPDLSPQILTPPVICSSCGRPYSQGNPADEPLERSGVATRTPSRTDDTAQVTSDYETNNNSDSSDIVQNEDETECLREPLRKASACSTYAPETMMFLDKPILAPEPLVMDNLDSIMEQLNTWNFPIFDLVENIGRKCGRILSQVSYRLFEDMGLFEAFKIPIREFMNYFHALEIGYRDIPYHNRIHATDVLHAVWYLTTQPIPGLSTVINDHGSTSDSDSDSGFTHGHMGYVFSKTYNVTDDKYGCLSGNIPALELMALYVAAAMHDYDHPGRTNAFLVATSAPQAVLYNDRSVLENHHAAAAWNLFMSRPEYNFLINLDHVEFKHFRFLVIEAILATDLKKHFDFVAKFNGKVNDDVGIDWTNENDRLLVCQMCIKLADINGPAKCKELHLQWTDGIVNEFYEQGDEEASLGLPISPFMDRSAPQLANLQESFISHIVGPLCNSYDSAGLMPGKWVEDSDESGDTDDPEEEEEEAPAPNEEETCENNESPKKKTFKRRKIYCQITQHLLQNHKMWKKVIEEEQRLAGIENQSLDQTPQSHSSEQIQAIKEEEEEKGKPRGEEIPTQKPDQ

[6] = biological target: T4, Type-1 angiotensin II receptor (Homo sapiens, UniProt P30556)
T4 sequence (P30556 whole entry): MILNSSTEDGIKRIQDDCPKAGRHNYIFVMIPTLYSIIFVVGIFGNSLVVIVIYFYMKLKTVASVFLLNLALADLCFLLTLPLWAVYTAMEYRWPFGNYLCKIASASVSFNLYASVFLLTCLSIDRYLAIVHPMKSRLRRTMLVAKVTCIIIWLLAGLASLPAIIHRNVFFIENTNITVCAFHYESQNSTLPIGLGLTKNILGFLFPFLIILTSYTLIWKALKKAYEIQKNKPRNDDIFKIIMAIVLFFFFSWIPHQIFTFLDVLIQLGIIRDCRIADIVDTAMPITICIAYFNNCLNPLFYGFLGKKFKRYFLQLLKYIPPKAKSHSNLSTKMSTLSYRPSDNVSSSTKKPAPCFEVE

[7] = biological target: Sodium-dependent noradrenaline transporter (Homo sapiens, UniProt P23975)
Sodium-dependent noradrenaline transporter, sequence (P23975 whole entry): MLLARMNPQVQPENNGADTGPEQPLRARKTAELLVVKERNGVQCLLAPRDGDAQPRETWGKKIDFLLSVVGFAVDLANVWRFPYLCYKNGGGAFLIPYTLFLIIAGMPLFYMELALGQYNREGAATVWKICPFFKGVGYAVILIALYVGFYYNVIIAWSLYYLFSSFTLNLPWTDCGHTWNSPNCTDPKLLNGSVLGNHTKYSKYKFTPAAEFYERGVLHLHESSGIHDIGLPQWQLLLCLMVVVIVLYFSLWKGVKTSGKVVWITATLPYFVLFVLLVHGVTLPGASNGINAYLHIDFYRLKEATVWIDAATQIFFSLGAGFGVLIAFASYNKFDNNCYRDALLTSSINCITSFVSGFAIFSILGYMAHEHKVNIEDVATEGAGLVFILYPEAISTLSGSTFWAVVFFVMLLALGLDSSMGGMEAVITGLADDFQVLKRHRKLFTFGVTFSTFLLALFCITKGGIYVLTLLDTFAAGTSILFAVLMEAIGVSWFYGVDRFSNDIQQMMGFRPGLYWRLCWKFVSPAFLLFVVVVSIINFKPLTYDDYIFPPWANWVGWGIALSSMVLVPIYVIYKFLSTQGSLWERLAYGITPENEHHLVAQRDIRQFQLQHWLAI

[8] = biological target: Beta-1 adrenergic receptor (Homo sapiens, UniProt P08588); type: functional
Beta-1 adrenergic receptor, sequence (P08588 whole entry): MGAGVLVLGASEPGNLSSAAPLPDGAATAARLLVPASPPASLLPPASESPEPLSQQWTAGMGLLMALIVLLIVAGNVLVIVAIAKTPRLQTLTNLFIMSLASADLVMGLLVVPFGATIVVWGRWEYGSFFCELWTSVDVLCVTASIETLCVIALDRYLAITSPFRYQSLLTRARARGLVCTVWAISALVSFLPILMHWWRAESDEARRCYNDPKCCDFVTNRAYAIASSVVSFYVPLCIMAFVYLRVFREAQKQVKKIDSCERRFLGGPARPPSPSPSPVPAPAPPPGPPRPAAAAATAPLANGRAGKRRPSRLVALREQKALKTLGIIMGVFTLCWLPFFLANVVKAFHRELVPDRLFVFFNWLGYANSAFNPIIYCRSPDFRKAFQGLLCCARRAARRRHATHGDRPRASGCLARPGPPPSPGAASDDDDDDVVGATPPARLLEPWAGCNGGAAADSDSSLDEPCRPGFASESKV

[9] = biological target: Glutamate receptor ionotropic, NMDA 1 (Rattus norvegicus, UniProt P35439)
[10] = biological target: 5-hydroxytryptamine receptor 2A (Homo sapiens, UniProt P28223); type: functional, cell-based
5-hydroxytryptamine receptor 2A, sequence (P28223 whole entry): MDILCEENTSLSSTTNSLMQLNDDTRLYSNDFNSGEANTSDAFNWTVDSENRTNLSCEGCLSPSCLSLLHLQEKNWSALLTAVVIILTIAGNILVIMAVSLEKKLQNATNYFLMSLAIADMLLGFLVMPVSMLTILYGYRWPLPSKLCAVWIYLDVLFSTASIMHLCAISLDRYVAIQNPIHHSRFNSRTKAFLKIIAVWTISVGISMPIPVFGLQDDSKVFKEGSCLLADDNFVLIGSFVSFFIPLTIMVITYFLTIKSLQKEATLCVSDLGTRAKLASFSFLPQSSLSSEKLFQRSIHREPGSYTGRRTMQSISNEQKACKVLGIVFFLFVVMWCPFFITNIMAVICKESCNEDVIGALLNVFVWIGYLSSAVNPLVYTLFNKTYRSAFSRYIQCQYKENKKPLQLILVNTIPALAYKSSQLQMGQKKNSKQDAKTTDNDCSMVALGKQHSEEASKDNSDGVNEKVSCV

[11] = biological target: T5, 5-hydroxytryptamine receptor 1A (Homo sapiens, UniProt P08908); type: functional, cell-based
T5 sequence (P08908 whole entry): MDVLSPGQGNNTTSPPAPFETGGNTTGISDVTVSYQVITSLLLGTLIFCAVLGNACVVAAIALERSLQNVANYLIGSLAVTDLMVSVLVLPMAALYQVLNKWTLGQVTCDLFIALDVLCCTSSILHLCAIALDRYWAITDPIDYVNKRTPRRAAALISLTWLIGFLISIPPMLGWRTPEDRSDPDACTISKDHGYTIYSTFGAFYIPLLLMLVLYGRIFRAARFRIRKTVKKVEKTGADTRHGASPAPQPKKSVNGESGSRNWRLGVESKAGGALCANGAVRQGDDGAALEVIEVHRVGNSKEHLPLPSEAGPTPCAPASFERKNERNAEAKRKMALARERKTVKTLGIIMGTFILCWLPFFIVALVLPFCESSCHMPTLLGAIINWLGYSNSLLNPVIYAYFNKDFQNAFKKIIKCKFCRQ

Measured: AC50
Note: assay procedure not described here.

Melanocortin receptor 3, sequence (P41968 whole entry): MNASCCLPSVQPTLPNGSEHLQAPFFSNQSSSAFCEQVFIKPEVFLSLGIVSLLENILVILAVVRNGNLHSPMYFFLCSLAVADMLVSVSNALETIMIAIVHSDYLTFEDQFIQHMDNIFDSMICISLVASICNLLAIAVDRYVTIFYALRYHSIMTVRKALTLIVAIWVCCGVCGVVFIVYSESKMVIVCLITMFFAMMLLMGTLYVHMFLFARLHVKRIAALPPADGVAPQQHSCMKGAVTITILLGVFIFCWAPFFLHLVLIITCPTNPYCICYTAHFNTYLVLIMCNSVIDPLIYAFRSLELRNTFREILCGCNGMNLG

CN(c1nccc(=O)[nH]1)C1CCN(c2nc3ccccc3n2Cc2ccc(F)cc2)CC1 [MIZOLASTINE]
6.1 µM: [5]
> 30 µM: all other assays above

CCOC(=O)Nc1ccc2c(c1)N(C(=O)CCN1CCOCC1)c1ccccc1S2 [MORICIZINE]
13 µM: [11]
> 30 µM: all other assays above

CC(=O)c1ccc2c(c1)N(CCCN1CCC(CCO)CC1)c1ccccc1S2 [PIPERACETAZINE]
1.8 µM: [7]
> 10 µM: [5]
> 30 µM: all other assays above

Cc1ccc(=O)n(-c2ccccc2)c1 [PIRFENIDONE]
> 30 µM: all assays above

NC(=O)CCC/N=C(\c1ccc(Cl)cc1)c1cc(F)ccc1O [PROGABIDE]
> 30 µM: [2] | [5]
> 10 µM: all other assays above

CCN(CC)CC(=O)Oc1ccc(NC(C)=O)cc1 [PROPACETAMOL]
> 30 µM: all assays above

CCCOC(C(=O)OC1CCN(C)CC1)(c1ccccc1)c1ccccc1 [PROPIVERINE]
> 30 µM: all assays above

Cc1ccc2c(-c3ccccc3)nc(=O)n(C(C)C)c2c1 [PROQUAZONE]
23 µM: [3]
> 30 µM: all other assays above

CC(NCCc1ccc(O)cc1)C(O)c1ccc(O)cc1 (stereo not drawn) [RITODRINE]
17 µM: [8]
23 µM and 37.6 µM: [7]
> 30 µM: all other assays above

COc1c(O[C@@H]2O[C@H](CO)[C@@H](O)[C@H](O)[C@H]2O)cc2c(c1OC)-c1ccc(SC)c(=O)cc1[C@@H](NC(C)=O)CC2 [THIOCOLCHICOSIDE]
> 30 µM: all assays above

CN1c2ccccc2C(NCCCCCCC(=O)O)c2ccc(Cl)cc2S1(=O)=O (stereo not drawn) [TIANEPTINE]
> 30 µM: all assays above

COc1cc2c(Nc3ccc(Br)cc3F)ncnc2cc1OCC1CCN(C)CC1 [VANDETANIB]
23 µM: [3]
> 30 µM: all other assays above

C=CC(N)CCC(=O)O (stereo not drawn) [VIGABATRIN]
> 30 µM: [2] | [5]
21.7 µM: [7]
> 10 µM: all other assays above
